Measurements published in patent US9061038B2, “Doxorubicin adjuvants to reduce toxicity and methods for using the same” (Tosk, Incorporated, priority 2008, dated 2015).
Entries after “also recorded” stand apart in the source; their conditions may differ. Where a name gives a salt, the structure may show the parent alone.

Legend:
[1] = cited from earlier work
[2] = system: CD-1 mice; assay: Mouse dose response study: protection against doxorubicin-associated cardiotoxicity, plasma cTnI ELISA; assay type: in vivo; conditions: 25 mg/kg doxorubicin ip, 0.0001, 0.001, 0.01, 0.1 or 1.0 mg/kg TK-115339 ip 3 hours before and after doxorubicin, plasma on day 5
Experimental: The aim of this study was to establish the dose response for the protection afforded by TK-115339 against doxorubicin-associated cardiotoxicity.
Eight to ten-week-old male CD-1 male mice (Charles River, Hollister, Calif.) weighing 30-35 g were housed in a climate-controlled environment, the light was controlled (light:dark, 12:12), and the animals were given food and water ad libitum. The animals (12 animals/treatment group) were dosed ip (200 μl volume) on day 1 with 25 mg/kg doxorubicin or 25 mg/kg doxorubicin plus 0.0001, 0.001, 0.01, 0.1 or 1.0 mg/kg TK-115339 3 hours before, and after, the doxorubicin treatment. […]
On days 2 and 3 the mice received a single ip injection of either saline (doxorubicin alone group) or […] (dose ranging experimental groups). […] The plasma samples were analyzed for cTnI using a commercial ELISA test according to the manufacture's recommendations (Life Diagnostics, Inc., Cat. No. 2010-1-HSP).
(§1) Data was analyzed using SPSS software (SPSS Inc., Chicago, Ill.). […]
Representative of the data shown in FIG. 2, mice (12 animals/treatment group) were dosed ip on Day 1 with 25 mg/kg doxorubicin or 25 mg/kg doxorubicin plus 0.0001, 0.001, 0.01, 0.1 or 1.0 mg/kg TK-115339 3 hours before, and after, the doxorubicin treatment. […] The plasma samples were analyzed for cTnI using a commercial ELISA test.

[3] = system: CCRF-CEM human cancer cells; assay: Cell culture study: interference with doxorubicin activity, alamarBlue cell viability; assay type: cell-based; conditions: doxorubicin 0.01, 0.1, 1.0 μM with TK-115339 0.01, 0.1, 1.0 μM, 72 hour incubation
Experimental: The aim of this study was to examine whether or not a representative nitrone test article, TK-115339, interfered with the desired activity of doxorubicin in vitro.
The tumor cell line for the cell culture study was CCRF-CEM (Human T-ALL, CCL-119) from ATCC, and cells were cultured in accordance with the product information sheets replacing 75 cm^2 culture flasks with 56.7 cm^2 Petri dishes and adding 1% penicillin-streptomycin solution and 1% GlutaMAX™ to the culture medium. The compound, TK-115339, was dissolved in DMSO then diluted to obtain initial working solutions of 1, 10 and 100 μM. […]
Cells were thawed according to ATCC protocol and plated in 10 mL of sterile filtered growth medium. […] Doxorubicin was evaluated at concentrations of 0.01, 0.1 and 1.0 μM alone or in combination with TK-115339 at concentrations of 0.01, 0.1 and 1.0 μM. […]
At the end of incubation, cell viability was determined by optical absorbance of alamarBlue® at λ=570 and 600 nm in accordance using a standard protocol provided by the vendor, Biosource. Data was analyzed using SPSS 14.0 software (SPSS Inc., Chicago, Ill.). Statistical significance of the differences between experimental groups was calculated by using one-way ANOVA followed by a Bonferroni post-hoc analysis.
Cells were prepared and tested as described above. […] For each condition, 12 replicates were analyzed. […]

[4] = system: CD-1 mice; assay: Mouse study: protection against doxorubicin-induced cardiac damage, plasma cardiac troponin I (cTnI) ELISA; assay type: in vivo; conditions: 25 mg/kg doxorubicin ip, 1.0 or 3.0 mg/kg TK-115339 ip 3 hours before and after doxorubicin, single ip on days 2-4, plasma on day 5 (96 hours)
Text: To this end, a representative nitrone test article (TK-115339) was examined for its ability to mitigate one aspect of doxorubicin-induced toxicity, cardiac damage, in CD-1 mice as determined by concentration of cardiac troponin I (cTnI) in animal plasma (Li et al., Circulation, 113:535-43 (2006) and Hou et al., J Lab Clin Med., 146: 299-303 (2005). Doxorubicin was purchased from Xinchem Corporation (China). TK-115339 was synthesized at the University of California, Santa Cruz. […]
On days 2, 3 and 4, the mice received a single ip injection of either 1 or 3 mg/kg of TK-115339. […] The plasma samples were analyzed for cTnI using a commercial ELISA test according to the manufacture's recommendations (Life Diagnostics, Inc., Cat. No. 2010-1-HSP).
as §1
Representative of the data shown in FIG. 1, mice (10 animals/treatment group) were dosed ip on Day 1 with vehicle (pH 7.4 buffered saline), 25 mg/kg doxorubicin ip or 25 mg/kg doxorubicin ip plus 1.0 or 3.0 mg/kg TK-115339 3 hours before, and after, the doxorubicin treatment. […] The plasma samples were analyzed for cTnI using a commercial ELISA test for troponin I. Boxplots of troponin findings from the study are provided in FIG. 1.

| SMILES | solubility in methanol ([1]; methanol) | solubility in water ([1]; water) | dose response of protection from doxorubicin-induced cardiac damage (plasma cardiac troponin) [2] | interference with tumor cell anti-growth activity (cytotoxicity) of doxorubicin, cell viability [3] | protection from doxorubicin-induced cardiac damage estimated by plasma cardiac troponin I (cTnI) [4] |
| --- | --- | --- | --- | --- | --- |
| COc1cccc2c1C(=O)c1c(O)c3c(c(O)c1C2=O)C[C@@](O)(C(=O)CO)C[C@@H]3O[C@H]1C[C@H](N)[C@H](O)[C@H](C)O1 [Doxorubicin hydrochloride, 5,12-naphthacenedione,10-[(3-amino-2,3,6-trideoxy-α-L-Iyxo-hexopyranosyl)oxy]-7,8,9,10-tetrahydro-6,8,11-trihydroxy-8-(hydroxyacetyl)-1-methoxy-, hydrochloride, (8S-cis)-(9Cl)] | slightly soluble in methanol | soluble in water |  |  |  |
| CC(C)(C)[N+]([O-])=Cc1ccc(SSc2ccc(C=[N+]([O-])C(C)(C)C)cc2)cc1 [TK-115339, symmetrical disulfide conjugate of alpha-(4-sulfanylphenyl)-N-tert-butylnitrone] |  |  | dose-response for the protection; also recorded: dose proportional | does not interfere with the toxicity of doxorubicin; also recorded: does not interfere with the tumor cell anti-growth activity of doxorubicin | mitigate one aspect of doxorubicin-induced toxicity, cardiac damage in CD-1 mice; also recorded: protects mice from doxorubicin-induced cardiac damage |
